From patent US20190328753A1, “COMPOSITIONS AND METHODS FOR TREATING OCULAR DISEASES” (priority 2015, published 2019)
“And” between values parts separate entries of the source, which are not always exact repeats. Equal values may be shown once.

Experiments:
Corneal epithelial cells [1] = assay: Lipid production in corneal epithelial cells, dilutions of 3 mg/ml formulation, Oil Red O (Example 6); assay type: cell-based; details: ninth day
Procedure: Corneal epithelial cells were cultured in vitro and treated with 0.03 mg/ml and other dilutions of a 3 mg/ml formulation of Spironolactone (100× (0.03 mg/ml), 200× (0.015 mg/ml), 500× (0.006 mg/ml), and 1000× (0.003 mg/mI)). The corneal epithelial cells were cultured in vitro to about 10-20% confluence. The cell medium with added spironolactone was changed every 2-3 days. On the ninth day, the cells were stained for lipids with Oil Red O.

Corneal epithelial cells [2] = assay: Lipid production in corneal epithelial cells, dilutions of 0.025 mg/ml formulation, Oil Red O (Example 7); assay type: cell-based; details: seventh day
Procedure: Corneal epithelial cells were cultured in vitro to about 30% confluence and treated with various dilutions of a 0.025 mg/mL spironolactone eye drop formulation (i.e. 50×, 100×, 500×, 1000×, and 5000×, corresponding to 0.0005 mg/ml, 0.00025 mg/ml, 0.00005 mg/ml, 0.000025 mg/ml, and 0.000005 mg/ml). The cell medium with spironolactone was changed every two days. On the seventh day, the cells were stained for lipids with Oil Red O.

[3] = Solubility of spironolactone; assay type: physicochemical; details: with the help of Pluronic F127
Procedure: The present inventors were able to get spironolactone into solution at 0.015 mg/ml with the help of Pluronic F127.

[4] = test system: patients with moderate to severe meibomian gland disease; assay: Pilot study (Example 3): topical spironolactone ophthalmic suspension in MGD, retrospective pre-post
[5] = post-treatment, n=20, lissamine green, scale 0-3
[6] = post-treatment, n=20, scale 0-4
[7] = pre vs post-treatment, n=20, positive = score decrease, scale 0-4
[8] = pre-post change, n=20, scale 0-3
[9] = pre-post change, n=20, scale 0-4

SMILES: CC(=O)SC1CC2=CC(=O)CCC2(C)C2CCC3(C)C(CCC34CCC(=O)O4)C12 (stereo not drawn) [spironolactone, 7α-acetylthio-3-oxo-17α-pregn-4-ene-21,17-carbolactone]
- lipid production (Oil Red O) (Corneal epithelial cells [1]; 0.006 mg/ml (500× dilution)): enhanced lipid production
- lipid production (Oil Red O) (Corneal epithelial cells [1]; 0.015 mg/ml (200× dilution)): enhanced lipid production
- lipid production (Oil Red O) (Corneal epithelial cells [1]; 0.03 mg/ml (100× dilution)): enhanced lipid production
- lipid production (Oil Red O) (Corneal epithelial cells [2]; 1000× dilution (0.000025 mg/ml)): lipid production was still present
- lipid production (Oil Red O) (Corneal epithelial cells [2]; 5000× dilution (0.000005 mg/ml)): no lipid is being formed
- concentration brought into solution [3]: 15000 ng/mL
- side effects after topical administration ([4]; patients of the pilot study): A small percentage of the patients reported a mild temporary burning sensation in the eye
- Vision OD, Mean ([4]; post-treatment, n = 19): 0.069±0.051 log Mar units and 0.069 log Mar units
- Schirmer's OD, Mean ([4]; post-treatment, n=20): 13.6 mm
- Schirmer's OS, Mean ([4]; post-treatment, n=20): 14.6 mm
- Vision OS, Mean ([4]; post-treatment, n=20): 0.063±0.032 log Mar units and 0.063 log Mar units
- Conjunctival OD (Nasal), Mean [4, 5]: 0.83±0.189 and 0.83
- Conjunctival OD (Temporal), Mean [4, 5]: 0.55±0.181 and 0.55
- Conjunctival OS (Nasal), Mean [4, 5]: 0.60±0.148 and 0.60
- Conjunctival OS (Temporal), Mean [4, 5]: 0.40±0.134 and 0.40
- Keratitis OD Corneal, Mean [4, 5]: 0.050±0.050 and 0.050
- Keratitis OS Corneal, Mean [4, 5]: 0.20±0.156 and 0.20
- Anterior Blepharitis, Mean [4, 6]: 0.38±0.114 and 0.38
- Obstruction, Mean [4, 6]: 1.58±0.236 and 1.58
- Turbidity, Mean [4, 6]: 2.3±0.193 and 2.3
- Vascularity, Mean [4, 6]: 1.48±0.253 and 1.48
- Zone A, Mean [4, 6]: 3.125±0.188 and 3.125
- Subjective Global Assessment, Mean ([4]; post-treatment, n=20, scale 0-10): 4.6±0.534 and 4.6
- improvement of turbidity score, percent ([4]; pre vs post-treatment, n=20): 22.03%
- improvement of zone A score, percent ([4]; pre vs post-treatment, n=20): 11.97%
- mean improvement in anterior blepharitis score [4, 7]: 0.175±0.230
- mean improvement in obstruction score [4, 7]: 0.40±0.222
- mean improvement in turbidity score [4, 7]: 0.65±0.141
- mean improvement in vascularity score [4, 7]: 0.25±0.194
- mean improvement in zone A score [4, 7]: 0.425±0.186
- improvement in self-reported global assessment scores ([4]; pre vs post-treatment, n=20, positive = score decrease, scale 0-10): 1.4±0.597
- Vision OD (log Mar units), Change % ([4]; pre-post change, n = 19): 213.64%
- Vision OD, mean change ([4]; pre-post change, n = 19): 0.047±0.043 log Mar units and 0.047 log Mar units
- Anterior Blepharitis, Change % ([4]; pre-post change, n=20): −31.82%
- Conjunctival OD (Nasal), Change % ([4]; pre-post change, n=20): −20.00%
- Conjunctival OD (Temporal), Change % ([4]; pre-post change, n=20): −29.49%
- Conjunctival OS (Nasal), Change % ([4]; pre-post change, n=20): −36.84%
- Conjunctival OS (Temporal), Change % ([4]; pre-post change, n=20): 20.00%
- Keratitis OD (Corneal), Change % ([4]; pre-post change, n=20): −50.00%
- Keratitis OS (Corneal), Change % ([4]; pre-post change, n=20): 0.00%
- Obstruction, Change % ([4]; pre-post change, n=20): −20.25%
- Schirmer's OD (mm), Change % ([4]; pre-post change, n=20): −3.71%
- Schirmer's OD, mean change ([4]; pre-post change, n=20): −0.525±1.496 mm and −0.525 mm
- Schirmer's OS (mm), Change % ([4]; pre-post change, n=20): 1.75%
- Schirmer's OS, mean change ([4]; pre-post change, n=20): 0.250±1.008 mm and 0.25 mm
- Subjective Global Assessment, Change % ([4]; pre-post change, n=20): −23.33%
- Turbidity, Change % ([4]; pre-post change, n=20): −22.03%
- Vascularity, Change % ([4]; pre-post change, n=20): −14.45%
- Vision OS (log Mar units), Change % ([4]; pre-post change, n=20): −7.20%
- Zone A, Change % ([4]; pre-post change, n=20): −11.97%
- Conjunctival OD (Nasal), Mean Change [4, 8]: −0.20±0.142 and −0.20
- Conjunctival OD (Temporal), Mean Change [4, 8]: −0.23±0.187 and −0.23
- Conjunctival OS (Nasal), Mean Change [4, 8]: −0.35±0.146 and −0.35
- Conjunctival OS (Temporal), Mean Change [4, 8]: 0.10±0.204 and 0.10
- Keratitis OD Corneal, mean change [4, 8]: −0.05±0.114 and −0.05
- Keratitis OS Corneal, mean change [4, 8]: 0.00±0.126 and 0.00
- Anterior Blepharitis, mean change [4, 9]: −0.175
- Obstruction, mean change [4, 9]: −0.4
- Turbidity, mean change [4, 9]: −0.65
- Vascularity, mean change [4, 9]: −0.25
- Zone A, mean change [4, 9]: −0.425
- Subjective Global Assessment, mean change ([4]; pre-post change, n=20, scale 0-10): −1.4
